{"source": "patent US9447156B2", "about": "“Methods and compositions for inhibiting neddylation of proteins” (St. Jude Children's Research Hospital, priority 2011, dated 2016)", "key": {"hCul1^ctd-hRbx1": {"target": "hCul1^ctd-hRbx1", "assay": "ITC hDcn1^P binding to hCul1^ctd-hRbx1", "conditions": "human versus yeast Kd", "description": "(§1) Protein samples were buffer matched by desalting over a NAP-5 column (GE Healthcare) into 50 mM Hepes, 125 mM NaCl, 1 mM BME, pH 7.0 (ITC buffer). Peptides were dissolved by weight to a final concentration of 10 mM in ITC buffer and diluted further in ITC buffer as required for the experiments. Measurements were performed using a MicroCal ITC200. hDcn1^P or yDcn1^P were placed into the sample cell at a final concentration of 400 μM at 18° C. The peptide ligands (4 mM) were constantly injected (1.5 μl). The interval time between each injection was 3 minutes and the duration of each injection was 3 seconds. For titrations involving hE1 and yE1, proteins were placed into the sample cell at a final concentration of 25 μM at 22° C. Peptide ligands (250 μM) were constantly injected (2.5 μl). The interval time between each injection was three minutes and the duration of each injection was 5 seconds. For hCul1^ctd-Rbx1:hDcn1^P binding, proteins were buffer matched by desalting over a NAP-5 column in 25 mM Tris, 0.1 M NaCl, 1 mM BME, pH 7.6. hCul1^ctd-Rbx1 was placed into the sample cell at a final concentration of 55 μM at 22° C. hDcn1^P (550 μM) was constantly injected (2.5 μl). The interval time between each injection was 3 minutes and the duration of each injection was 5 seconds. Obtained spectra were evaluated using Origin (V 7.0) to determine heats of binding and Kd values."}, "hDcn4^P": {"target": "T1, hDcn4^P (Homo sapiens, UniProt Q92564)", "T1 sequence (Q92564 102-292)": "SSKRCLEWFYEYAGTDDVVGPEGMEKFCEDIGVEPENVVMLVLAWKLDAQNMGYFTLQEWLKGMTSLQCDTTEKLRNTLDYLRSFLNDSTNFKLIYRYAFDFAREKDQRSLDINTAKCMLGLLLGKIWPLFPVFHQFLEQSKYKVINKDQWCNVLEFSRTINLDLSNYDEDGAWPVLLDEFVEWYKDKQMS", "assay": "ITC binding of peptides to hDcn4^P", "conditions": "Table 29, peptides with amidated carboxy-terminus", "description": "as §1, with “values. […]” for “values.”"}, "hDcn2^P": {"target": "T2, hDcn2^P (Homo sapiens, UniProt Q6PH85)", "T2 construct": "human Dcn1 family members 1-5 (also called DCUND1-DCUND5)", "T2 sequence (Q6PH85 62-259)": "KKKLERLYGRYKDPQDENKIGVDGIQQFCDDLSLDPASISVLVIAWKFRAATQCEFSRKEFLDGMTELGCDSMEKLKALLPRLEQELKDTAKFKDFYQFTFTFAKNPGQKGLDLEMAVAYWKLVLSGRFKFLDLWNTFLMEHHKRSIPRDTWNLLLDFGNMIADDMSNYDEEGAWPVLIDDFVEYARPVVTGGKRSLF", "assay": "ITC binding of peptides to hDcn2^P", "conditions": "Table 29, peptides with amidated carboxy-terminus", "description": "as §1\n(§2) The affinity of various peptides for hDcn1^P, hDcn2^P, hDcn3^P, hDcn4^P, and hDcn5^P was tested using isothermal titration calorimetry as described in Example 1 and is provided in Table 29."}, "hDcn1^P": {"target": "T3, hDcn1^P (Homo sapiens, UniProt Q96GG9)", "T3 construct": "hDcn1^P corresponds to residues 62 to the C-terminal residue 259 of hDcn1; GST (cleaved yes); made in house; host or cells: E. coli BL21(DE3)Gold", "T3 sequence (Q96GG9 62-259)": "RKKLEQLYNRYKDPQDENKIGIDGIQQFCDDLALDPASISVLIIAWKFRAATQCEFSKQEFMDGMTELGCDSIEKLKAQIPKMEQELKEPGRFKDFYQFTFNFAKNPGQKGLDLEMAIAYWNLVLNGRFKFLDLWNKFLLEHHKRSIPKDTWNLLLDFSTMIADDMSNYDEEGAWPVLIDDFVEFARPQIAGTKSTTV", "assay": "ITC binding of Ubc12/Ube2f peptides to hDcn1^P", "conditions": "Table 29, peptides with amidated carboxy-terminus, read-out: Binding Kd for hDcn1^P", "description": "as §1, §2"}, "hDcn5^P": {"target": "T4, hDcn5^P (Homo sapiens, UniProt Q9BTE7)", "T4 construct": "human Dcn1 family members 1-5 (also called DCUND1-DCUND5)", "T4 sequence (Q9BTE7 47-237)": "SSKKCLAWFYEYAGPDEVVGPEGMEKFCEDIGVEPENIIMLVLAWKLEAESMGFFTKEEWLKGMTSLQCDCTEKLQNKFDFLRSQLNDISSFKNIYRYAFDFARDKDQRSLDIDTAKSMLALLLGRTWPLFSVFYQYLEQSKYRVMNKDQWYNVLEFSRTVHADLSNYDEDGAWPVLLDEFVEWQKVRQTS", "assay": "ITC binding of peptides to hDcn5^P", "conditions": "Table 29, peptides with amidated carboxy-terminus", "description": "as §1, with “values. […]” for “values.”"}, "yCul1^C+-yRbx1": {"target": "yCul1^C+-yRbx1", "sequence (Q12018 427-815 limits assumed)": "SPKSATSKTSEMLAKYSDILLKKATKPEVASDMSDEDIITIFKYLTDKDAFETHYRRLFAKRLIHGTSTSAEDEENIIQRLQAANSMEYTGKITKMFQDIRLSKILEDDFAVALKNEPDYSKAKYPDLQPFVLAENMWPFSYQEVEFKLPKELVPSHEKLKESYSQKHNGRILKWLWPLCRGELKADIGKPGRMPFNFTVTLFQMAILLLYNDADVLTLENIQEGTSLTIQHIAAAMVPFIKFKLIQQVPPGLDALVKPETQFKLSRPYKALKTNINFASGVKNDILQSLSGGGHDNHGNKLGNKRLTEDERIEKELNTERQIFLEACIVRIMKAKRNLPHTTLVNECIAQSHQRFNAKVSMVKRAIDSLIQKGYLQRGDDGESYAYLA", "sequence (Q08273 32-121 limits assumed, further chain)": "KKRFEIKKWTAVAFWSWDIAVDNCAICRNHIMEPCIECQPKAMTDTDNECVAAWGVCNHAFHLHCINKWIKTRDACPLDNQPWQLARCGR", "conditions": "yeast counterparts; read-out: Kd yCul1^C+-yRbx1:yDcn1^P; cited from earlier work"}}}
{"molecule": "hDcn1^P: residues 62 to 259 of hDcn1 (SCCRO, DCUN1D1), the potentiating neddylation domain", "values": [{"measurement": "Kd of human proteins relative to yeast counterparts (fold worse)", "setting": "hCul1^ctd-hRbx1", "value": "approximately 30 fold"}]}
{"molecule": "Ac-MLTLASKLKRDDGLKGSRTAATASD-NH2 [hUbe2f^Ac1−25]", "values": [{"measurement": "Kd", "setting": "hDcn4^P", "value": "> 40", "unit": "µM"}, {"measurement": "Kd", "setting": "hDcn2^P", "value": "> 400", "unit": "µM"}, {"measurement": "Kd", "setting": "hDcn1^P", "value": "> 500", "unit": "µM"}, {"measurement": "Kd", "setting": "hDcn5^P", "value": "> 30", "unit": "µM"}]}
{"molecule": "yDcn1^P: PONY domain of S. cerevisiae Dcn1 (protein) VYPKELTQVFEHYINNNLFDIDSLVKFIEELGYNLEDLATLCLAHLLGYKKLEEPLKREDFLSTWFMQGCSTISDMQECIKTLDVKLHEDLQYFTQIYNYAFNLILDPNRKDIDTDEGIQYWKLFFQPEYPVRMEPDLLEAWFRFLRDEGKTTISKDTWRMLLLFFKRYPTIQKIISDYDETAAWPFIIDEFYECLQDQQ", "values": [{"measurement": "Kd", "setting": "yCul1^C+-yRbx1", "value": 0.028, "unit": "µM"}]}
